Legend:
Type in all cases: in vivo
[1] = tested on: Housefly [Musca domestica]; assay: Housefly insecticidal test (HF); details: per 25 female houseflies, 48 hours
[2] = tested on: Tobacco Budworm [Heliothis virescens (Fabricius)] eggs; assay: Tobacco budworm egg test (TBW-E); details: percent in solution
[3] = tested on: Cabbage Looper [Trichoplusia ni (Hubner)]; assay: Cabbage looper test (CL); details: second-instar larvae, 3-5 days, percent in solution
[4] = tested on: Maize weevil [Sitophilus Zeamais (Motschulsky)]; assay: Maize weevil test (MW); details: adult weevils, treated corn seeds, 48 hours, percent in solution
Method: The compounds in Tables 1 and 2 above were tested for insecticidal activity using the following testing procedures. LC50 values, based on the results of these tests and calculated according to dosage-mortality curves, are expressed in Table 3.
Maize weevil [Sitophilus Zeamais (Motschulsky)]
Test compounds were diluted in a 50:50 acetone:water solution. Four corn seeds [Zea mays (L.)] which had been immersed in test solutions for 2-3 seconds and allowed to dry were placed in containers together with 10 adult weevils. The containers were covered and kept at a temperature of about 25° C. Mortality was recorded after 48 hours. Test concentrations ranged from 0.01% down to that at which 50% mortalilty occurred. The LC50 values are expressed below in Table 3 under the heading "MW" in terms of percent of the test compound in solution.

| Structure (SMILES) | LC50 HF [1] [µg] | LC50 TBW E [2] [%] | LC50 CL [3] [%] | LC50 MW [4] [%] |
| --- | --- | --- | --- | --- |
| Clc1ccc(N=C(OCc2cccc(Oc3ccccc3)c2)C2CCC2)cc1 [Compound 8] | 50 | > 0.01 | 0.01 | > 0.01 |
| CC(C)(C)C(=Nc1cccc(C(F)(F)F)c1)OCc1cccc(Oc2ccccc2)c1 [Compound 88] | > 100 | > 0.1 | 0.018 | > 0.01 |
| Fc1ccc(Oc2cccc(COC(=Nc3ccc(F)c(Cl)c3)C3CC3)c2)cc1 [Compound 116] | 15 | 0.05 | 0.00025 | > 0.01 |
| CCc1ccc(N=C(OCc2cccc(Oc3ccccc3)c2)C(C)(C)C)cc1 [Compound 163] | > 100 | > 0.1 | 0.004 | > 0.01 |
| CC(C)C(=Nc1ccc(F)c(Cl)c1)OCc1cccc(Oc2cccc(Cl)c2)c1 [Compound 203] | 43 | 0.06 | 0.0025 | > 0.01 |
| CC(C)C(=Nc1cc(F)c(Cl)cc1Cl)OCc1ccc(F)c(Oc2ccc(F)cc2)c1 [Compound 292] | 41 | 0.05 | 0.00075 | > 0.01 |
| Fc1ccc(Oc2cccc(COC(=Nc3cccc(C(F)(F)F)c3)C3CC3)c2)cc1 [Compound 294] | > 100 | > 0.1 | 0.017 | > 0.01 |
| CC(C)C(=Nc1ccc(F)c(Br)c1)OCc1ccc(F)c(Oc2ccccc2)c1 [Compound 299] | 8 | 0.017 | 0.0005 | > 0.01 |
| CC(C)C(=Nc1ccc(OC(F)(F)F)c(Cl)c1)OCc1cc(F)cc(Oc2ccc(F)cc2)c1 [Compound 328] | > 100 | > 0.1 | 0.03 |  |
| CC(C)CC(=Nc1ccc(C(C)C)cc1)OCc1cccc(Oc2ccc(F)cc2)c1 [Compound 329] | 7 | > 0.1 | 0.033 |  |
| CC(C)C(=Nc1ccc(F)c(Cl)c1)OCc1cccc(Oc2ccc(I)cc2)c1 [Compound 447] | 33 | > 0.1 | 0.0009 |  |
| CC(C)C(=Nc1ccc(F)c(Cl)c1)OCc1ccc(Cl)c(Oc2ccc(F)cc2)c1 [Compound 448] | 16 | 0.03 | 0.003 |  |
| Fc1c(F)c(F)c(COC(=Nc2cccc(Cl)c2Cl)C(Cl)Cl)c(F)c1F [Compound 454] | > 100 | > 0.1 | 0.03 |  |
| Cc1c(COC(=Nc2ccc(Cl)cc2)C(C)C)cccc1-c1ccccc1 [Compound 455] | > 100 | > 0.1 | 0.0025 |  |
| Cc1c(COC(=Nc2ccc(F)cc2)C(C)C)cccc1-c1ccccc1 [Compound 458] | 100 | > 0.05 | 0.007 |  |
| CC(C)C(=Nc1ccc2c(c1)OCO2)OCc1c(F)c(F)c(F)c(F)c1F [Compound 464] | > 100 | > 0.1 | 0.08 |  |
| CC(C)C(=Nc1ccc2c(c1)OCO2)OCc1cccc(Oc2ccccc2)n1 [Compound 467] | 6 | 0.04 | 0.003 |  |
| CC(C)C(=Nc1ccc2c(c1)OC(C)(C)O2)OCc1cccc(Oc2ccc(Cl)cc2)n1 [Compound 468] | 50 | > 0.1 | > 0.1 |  |
| CC(C)C(=Nc1cccc(C(F)(F)F)c1)OCc1cccc(Oc2ccncc2)c1 [Compound 469] | 40 | > 0.1 | 0.02 |  |
| CC(C)C(=Nc1ccc(F)c(Cl)c1)OCc1cccc(Oc2ccncc2)c1 [Compound 470] | 25 | > 0.1 | 0.02 |  |

| Structure (SMILES) | LC50 HF [1] [µg] | LC50 TBW E [2] [%] | LC50 CL [3] [%] | LC50 MW [4] [%] |
| --- | --- | --- | --- | --- |
| CC(C)C(=Nc1ccc(F)c(Cl)c1)OCc1cccc(OCc2ccccc2)c1 [Compound 472] | > 100 | > 0.1 | 0.0025 |  |
| CC(C)C(=Nc1ccc(F)c(Cl)c1)OCc1ccc(F)c(Br)c1 [Compound 473] | > 100 | > 0.1 | 0.025 |  |
| CC(C)C(=Nc1ccc(F)c(Cl)c1)OCc1coc(Cc2ccccc2)c1 [Compound 474] | 8 | > 0.1 | 0.0012 |  |
| CC(C)C(=Nc1cccc(C(F)(F)F)c1)OCc1ccc(OCc2ccccc2)cc1 [Compound 476] | > 100 | > 0.1 | 0.015 |  |
| C=CCOc1cccc(COC(=Nc2ccc(Cl)c(Cl)c2)C(C)C)c1 [Compound 481] | > 100 | > 0.1 | 0.015 |  |
| CC(C)C(=Nc1ccc(Cl)cc1)OCc1coc(Cc2ccccc2)c1 [Compound 484] | 16 | > 0.1 | 0.003 |  |
| CC(C)C(=Nc1ccc(F)c(F)c1)OCc1coc(Cc2ccccc2)c1 [Compound 485] | 24 | > 0.1 | > 0.1 |  |
| CC(C)C(=Nc1ccc(F)c(Cl)c1)OCc1ccc(OCc2ccc(F)cc2)cc1 [Compound 487] | > 100 | > 0.1 | 0.023 |  |
| CC(C)C(=Nc1cccc(C(F)(F)F)c1)OCc1ccc(OCc2ccc(F)cc2)cc1 [Compound 488] | > 100 | > 0.1 | 0.025 |  |
| CC(C)C(=Nc1cccc(C(F)(F)F)c1)OCc1cccc(OCc2ccc(F)cc2)c1 [Compound 489] | > 100 | > 0.1 | < 0.1 |  |
| CC(C)C(=Nc1ccc(F)cc1)OCc1coc(Cc2ccccc2)c1 [Compound 491] | 9 | 0.08 | 0.0028 |  |
| CC(C)C(=Nc1cccc(C(F)(F)F)c1)OCc1cccc(Oc2ccc(Br)cc2)n1 [Compound 493] | 36 | 0.05 | 0.0008 |  |
| Cc1ccc(Oc2cccc(COC(=Nc3ccc(F)c(Cl)c3)C(C)C)n2)cc1 [Compound 494] | 34 | > 0.1 | 0.003 |  |
| Cc1ccc(Oc2cccc(COC(=Nc3cccc(C(F)(F)F)c3)C(C)C)n2)cc1 [Compound 495] | > 100 | 0.1 | 0.012 |  |
| CC(C)C(=Nc1ccc(C(C)(C)C)cc1)OCc1cccc(Oc2ccccc2)n1 [Compound 496] | > 100 | > 0.1 | 0.006 |  |
| CC(C)C(=Nc1ccc(C(C)(C)C)cc1)OCc1cccc(Oc2ccc(Cl)cc2)n1 [Compound 497] | > 100 | > 0.1 | 0.0075 |  |
| CC(C)C(=Nc1ccc(F)c(Cl)c1)OC(C)c1cccc(Oc2ccccc2)n1 (centres unmarked) [Compound 498] | 49 | > 0.1 | 0.002 |  |
| CC(C)C(=Nc1cccc(C(F)(F)F)c1)OC(C)c1cccc(Oc2ccccc2)n1 (centres unmarked) [Compound 499] | 63 | > 0.1 | 0.0024 |  |
| COCc1c(F)c(F)c(COC(=Nc2ccc3c(c2)OCO3)C(C)C)c(F)c1F [Compound 501] | 20 | > 0.1 | 0.00045 |  |
